Results from PubChem BioAssay AID179 (DTP/NCI, 2004).
pEC50, pIC50: −log10 of the molar value. Activity calls are given as the source filed them.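 The calls were made as follows: active = compounds giving half or more protection of infected cells from virus-caused growth loss, again on retest; inactive = the rest.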

System: CEM cells HIV-1 protection, formazan growth assay
Test: NCI AIDS Antiviral Assay
Settings: for pIC50: measured here: growth of uninfected CEM cells
Method in brief: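 Soluble formazan readout of cell growth; CEM cells ± HIV-1; 5 drug concs. ≥50% protection → retest; ≥50% again = moderately active; reproducible 100% = confirmed active.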

| SMILES | outcome | pEC50 | pIC50 |
| --- | --- | --- | --- |
| Cc1nnc(NS(=O)(=O)c2ccc(N=Nc3c(N)n(C)c(=O)n(C)c3=O)cc2)s1 | inactive | – | – |
| CCOC(=O)CCC1(C(=O)OCC)CCCCC1=O (centres undefined) | – | < 3.60 | < 3.60 |
| C[CH2][Sn]1([CH2]C)[O]C(=O)[O][Sn]([CH2]C)([CH2]C)[O]1 | – | < 5.08 | 5.65 |
| Clc1ccc2nsnc2c1 | inactive | – | – |
| COC(=O)C(Cc1ccccc1)NP(=O)(O)OCC1OC(n2ccc(N)nc2=O)C(O)C1O (centres undefined) | – | < 3.70 | 5.37 |
| CCOC(=O)Nn1cnnc1Cc1ccccc1 | – | < 3.70 | < 3.70 |
| CS1(=O)=CC(=O)CC(c2ccccc2)C1 (centres undefined) | – | < 2.95 | < 2.95 |
| CCOC(=O)C1=NN(c2ccccc2)C(=O)/C1=C\N1CC(=O)NC1=S | – | < 3.70 | < 4.00 |
| O=C(NC(=O)c1ccccc1)NC(=O)c1ccccc1 | – | < 3.87 | < 3.87 |
| OC(COc1ccc2ccccc2c1)COc1ccc2ccccc2c1 | – | < 3.70 | 3.86 |
| CC1=CC(C)(C)Nc2ccccc2N1 | – | < 3.70 | < 3.70 |
| CCCCN(CCCC)CC(C(C)=O)C(c1ccccc1)c1c(O)c2ccccc2oc1=O (centres undefined) | – | < 4.38 | < 4.38 |
| Nc1ncnc2oc(C3OC(COC(=O)c4ccccc4)C(OC(=O)c4ccccc4)C3OC(=O)c3ccccc3)nc12 (centres undefined) | – | < 3.70 | 3.83 |
| O=C1C=C(c2c(O)ccc3ccccc23)c2cc(O)ccc2C1=O | – | < 3.95 | 5.18 |
| COCN1C(=O)CN=C(c2ccccc2)c2cc(NO)ccc21 | – | 4.79 | 4.66 |
| CCOC(=O)[C@]12C(=C(c3ccccc3)O[C@H]3C=CCC[C@H]31)C(=O)C(=O)N2c1ccccc1 | – | < 3.70 | 4.12 |
| CC1(CCc2ccccc2)CC1(Br)Br (centres undefined) | – | < 3.70 | 4.02 |
| O=S(=O)(CC#CCO)c1ccccc1 | inactive | – | – |
| CCC/C(=N\NC(=S)N1CCN(c2ccccn2)CC1)c1ccccn1 | – | < 4.71 | 7.96 |
| C/C(=N\NC(=O)C[n+]1ccccc1)c1sc(-c2nc(C)c(/C(C)=N/NC(=O)C[n+]3ccccc3)s2)nc1C | – | < 4.52 | < 4.52 |
| O=C1C2c3[nH]c4ccccc4c3C3CCCCCCC3C2C(=O)N1c1ccccc1 (centres undefined) | inactive | – | – |
| COCC(O)Cn1ccnc1[N+](=O)[O-] (centres undefined) | – | < 2.91 | < 2.91 |
| COc1cc(C(F)(F)F)nc(SC)n1 | – | < 3.70 | < 3.70 |

| SMILES | outcome | pEC50 | pIC50 |
| --- | --- | --- | --- |
| Nc1nc2nsnc2nc1N | – | < 3.62 | < 3.62 |
| C[n+]1c2ccccc2c(/C=N\NS(=O)(=O)c2ccc(O)c(C(=O)O)c2)c2ccccc21 | inactive | – | – |
| Cc1ccc([N+](=O)[O-])cc1NC1=NCCO1 | – | < 3.70 | 3.73 |
| COC(=O)C12c3[nH]c4ccccc4c3CCN1CC(=O)C2C(=O)OCc1ccccc1 (centres undefined) | – | < 4.04 | 4.24 |
| CCN(CC)C1=CC(=O)n2cccc21 | – | < 3.70 | < 3.70 |
| COC(=O)c1ccc(C)cc1/C=C1\Cc2ccc(C)cc2C1=O | – | < 3.70 | 4.73 |
| O=C(C(=O)n1ccc2ccccc21)c1c[nH]c2ccccc12 | – | < 3.70 | < 3.70 |
| COC(=O)C(=O)C(/C=N/C(=S)Nc1ccc(S(=O)(=O)Nc2nccs2)cc1)=C(\O)c1c(C)[nH]c2ccccc12 | – | < 3.70 | 4.14 |
| CCCC(=O)NC(Nc1ccc(S(=O)(=O)Nc2ccc(OC)nn2)cc1)(C(F)(F)F)C(F)(F)F | – | < 3.70 | < 3.70 |
| CCOC(=O)C(c1ccccc1)[N+](C)(C)C (centres undefined) | – | < 3.70 | < 3.70 |
| CCCCc1c(N(C)C)c(OC(C)=O)c(-c2cn(C)c3ccccc23)oc1=O | – | < 3.70 | 4.50 |
| COc1ccc(OC)c(/C=C/c2cnnc3ccccc23)c1 | – | < 4.19 | 5.50 |
| CCN(CC)Cc1cc(Nc2c3ccccc3nc3c4ccccc4n(C)c23)cc(CN(CC)CC)c1O | – | < 3.81 | 5.51 |
| CC(CCC(C)OS(=O)(=O)c1ccc(F)cc1)OS(=O)(=O)c1ccc(F)cc1 (centres undefined) | inactive | – | – |
| Nc1nc(Cl)c(N)c(NCC2(CO)CC(O)C2)n1 (centres undefined) | – | < 3.70 | < 3.70 |
| CC1(C)Oc2ccc3ccc(=O)oc3c2C(O)C1O (centres undefined) | – | < 3.70 | 3.94 |
| N#C/C(=C\c1ccc(C#N)cc1)c1ccccc1 | – | < 4.93 | < 4.93 |
| O=C(NCCCCCCCCNC(=O)c1cnc2ccccc2n1)c1cnc2ccccc2n1 | – | < 3.40 | 4.25 |
| O=C1OCCOCCOCCOC(=O)c2ccccc2SSc2ccccc21 | – | < 3.70 | 4.47 |
| CN(C)c1ccc(C(C2=C(O)c3ccccc3C(=O)C2=O)C2=C(O)c3ccccc3C(=O)C2=O)cc1 | – | < 3.70 | 4.51 |
| Cn1c(=O)cc(CNc2ccc(-c3ccccc3)cc2)c2ccccc21 | – | < 3.70 | 4.12 |
| COC(=O)/C(C#N)=C(\N)c1c(C)c2ccccc2oc1=N | – | < 3.70 | < 3.70 |
| CCOC(=O)c1nc2ccccc2nc1NCc1cc(OC)c(OC)c(OC)c1 | – | < 3.70 | 4.56 |

| SMILES | outcome | pEC50 | pIC50 |
| --- | --- | --- | --- |
| CCOc1ccc(N=Cc2cccc3cccnc23)cc1 | inactive | – | – |
| COP1(=O)OCc2cnccc2O1 (centres undefined) | – | < 3.70 | < 3.70 |
| Cc1cn2c(=O)c3ccccc3nc2s1 | – | < 5.32 | < 5.32 |
| CCCCCCCCCCCCCc1nn[nH]n1 | – | < 3.99 | < 4.00 |
| O=c1[nH]cc(NS(=O)(=O)O)c(=O)[nH]1 | – | < 3.70 | < 3.70 |
| Cc1c(CN2CCN(C)CC2)c(CN2CCN(C)CC2)c(C)n1-c1ccc(Cl)cc1 | – | < 3.82 | 4.58 |
| COP(=O)(O)C(N)Cc1c[nH]c2ccccc12 (centres undefined) | – | < 3.70 | < 3.70 |
| CCN(CC)Cc1cc(Nc2c3ccccc3nc3c2[nH]c2ccccc23)cc(CN(CC)CC)c1O | – | < 3.37 | 6.57 |
| COC1=C(C(=O)OC(C)(C)C)[C@]2(C)C(C(=O)OC(C)(C)C)C(OC)=C(C(=O)OC(C)(C)C)[C@]2(C)C1C(=O)OC(C)(C)C (some centres undefined) | inactive | – | – |
| COc1cc(OC)c2c(=O)c3ccccc3n3c(C(C)O)cc1c23 (centres undefined) | – | < 3.70 | 5.32 |
| c1ccc(C2N3CCCCC3[C@@H]3c4[nH]c5ccccc5c4CCN23)cc1 (some centres undefined) | – | < 4.68 | < 4.68 |
| C[C@]12CCC(=O)C=C1CC[C@@H]1C2CC[C@]2(C)Nc3c(cnn3-c3ccccc3)CC12 (some centres undefined) | inactive | – | – |
| Nc1cc(Cl)ccc1N1C(=O)CCC1=O | – | 3.78 | < 3.70 |
| Cc1ccc([S@](=O)c2occc2C=O)cc1 | – | < 4.70 | 5.74 |
| O=C1/C(=C/c2ccc([N+](=O)[O-])cc2)Cc2ccccc21 | – | < 5.69 | < 5.69 |
| CCOC(=O)C12CCCC1(O)N(NC(=O)c1cccc(Cl)c1)C(C)=C2C(=O)OC (centres undefined) | – | < 3.37 | 3.91 |
| COC(=O)/C(=N\NC(N)=O)C(C(=O)C(=O)Nc1ccccc1OC)c1nc2ccc([N+](=O)[O-])cc2[nH]c1=O (centres undefined) | – | < 3.32 | 3.64 |
| CC(=O)N(C)c1ccc2ncccc2c1[N+](=O)[O-] | – | < 2.99 | 3.25 |
| O=C(O)c1ccc(CS(=O)(=O)c2ccc([N+](=O)[O-])cc2)cc1 | – | < 4.65 | < 4.65 |
| CN1C(=O)C2CCC1n1c(=O)n(-c3ccccc3)c(=O)n12 (centres undefined) | inactive | – | – |
| CCOC(=O)CN1C(=O)NC(C)(c2ccccc2)C1=O (centres undefined) | – | < 3.70 | < 3.70 |
| COP(=O)(OC)c1nc(P(=O)(OC)OC)nc(P(=O)(OC)OC)n1 | – | < 3.96 | 4.05 |
| CCC1(C)C=Cc2c(cc(O)c3c(=O)c4ccccc4n(C)c23)O1 (centres undefined) | – | < 3.70 | < 3.70 |

| SMILES | outcome | pEC50 | pIC50 |
| --- | --- | --- | --- |
| CC([C@H]1CCC2[C@@H]3CCC4C(=O)C(NC(=O)c5ccccc5)=CC[C@]4(C)C3CC[C@@]21C)N(C)C (some centres undefined) | – | < 5.36 | 5.88 |
| Cc1ccnc(NC(=O)Nc2cc(Cl)ccc2Cl)c1 | – | < 3.70 | < 3.70 |
| Cc1ccc([N+](=O)[O-])cc1NC(=O)C(=O)Cc1occc(=O)c1O | inactive | – | – |
| O=c1c2c(-c3ccccc3)c3ccccc3nc2cnn1-c1ccccc1 | – | < 4.10 | < 4.10 |
| CN=C(N)c1ccc(N=C(N)c2cccc(C(N)=Nc3ccc(C(N)=NC)cc3)c2)cc1 | – | < 3.70 | < 3.70 |
| C[C@@H]1C[C@@H](O)[C@]2(O)O[C@@H]3C[C@@]4(C=O)[C@@H](CC[C@@H]5[C@@H]4CC[C@]4(C)[C@@H](C6=CC(=O)OC6)CC[C@]54O)C[C@H]3O[C@@H]2O1 | – | < 3.33 | 5.74 |
| O=C(O)c1ccccc1C(=O)CCC(=O)c1ccccc1C(=O)O | – | < 3.70 | < 3.70 |
| Cc1cc(C)n(-c2nc3ccccc3c(=O)n2-c2ccccc2)n1 | – | < 3.70 | < 3.70 |
| O=C(Nc1ccccc1)NC(CSSCC(NC(=O)Nc1ccccc1)C(=O)O)C(=O)O (centres undefined) | – | < 3.70 | 5.14 |
| O=C1OC(=O)c2c1ccc1ccccc21 | – | < 4.30 | < 4.30 |
| COc1ccccc1C(=O)NCC1CCCN2CCCCC12 (centres undefined) | – | < 3.70 | < 3.70 |
| NC(N)=N/N=C\c1c(-c2ccccc2)nc2sccn12 | – | < 3.70 | 4.92 |
| O=C(O)/C=C\CCCCCCCCC(=O)O | – | < 3.10 | < 3.10 |
| CN(C)c1ccc(SSc2ccc(N(C)C)cc2)cc1 | – | < 3.70 | 4.85 |
| Cc1cc(NS(=O)(=O)c2ccc(Nc3c4ccccc4nc4c(C(=O)NC(CO)(CO)CO)cccc34)cc2)no1 | – | < 3.70 | 4.95 |
| COc1cc(C(=O)NO)ccc1O | – | < 2.07 | 3.35 |
| COc1ccc2[nH]c3c4c(cc(-c5ccccc5)c3c2c1)C(=O)N(c1ccccc1)C4=O | – | < 5.04 | < 5.04 |
| Nc1cc(Cl)ccc1S | – | < 3.70 | 4.86 |
| CCCCCCCCCCCCCCCCCC(=O)OC[C@H](COP(=O)(O)OCCNC(=O)CCC(=O)NCCC=C(c1cc(Cl)c(OC)c(C(=O)OC)c1)c1cc(Cl)c(OC)c(C(=O)OC)c1)OC(=O)CCCCCCCCCCCCCCCCC | – | < 4.30 | < 4.30 |
| O=c1[nH]c2ccc(O)cc2o1 | – | < 3.70 | < 3.70 |
| CCCCCCCCCCCC(=O)c1c(O)cccc1O | – | < 4.75 | 4.81 |
